Read-outs that look alike come from different tables or passages of the source.
Experiments:
AGK = AGK (Homo sapiens, UniProt Q53H12); test: KiNativ, OCI cells live cell; assay type: cell-based; conditions: 2 h, labeling site ATP, peptide […]
[1] = tested on: RSK1 domain1, RSK2 domain1, RSK3 domain1; test: KiNativ, OCI cells live cell; assay type: cell-based, human; conditions: labeling site Lys2, peptide DLKPENILLDEEGHIK
ROCK1, ROCK2 = test: KiNativ, OCI cells live cell; assay type: cell-based, human
AKT1 = AKT1 (Homo sapiens, UniProt P31749); test: KiNativ, OCI cells live cell; assay type: cell-based; conditions: 2 h, labeling site ATP Loop, peptide […]
FGFR1 = biological target: T1, FGFR1 (Homo sapiens, UniProt P11362); test: KdELECT binding assay
T1 construct: purchased Eurofins DiscoverX

LCK = LCK (Homo sapiens, UniProt P06239); test: KiNativ, OCI cells live cell; assay type: cell-based; conditions: 2 h, labeling site Activation Loop, peptide […]
AKT1, AKT3 = test: KiNativ, OCI cells live cell; assay type: cell-based, human
[2] = tested on: ZC1/HGK, ZC2/TNIK, ZC3/MINK; test: KiNativ, OCI cells live cell; assay type: cell-based, human; conditions: labeling site Lys2, peptide DIKGQNVLLTENAEVK
p70S6Kb = p70S6Kb (Homo sapiens, UniProt Q9UBS0); test: KiNativ, OCI cells live cell; assay type: cell-based; conditions: 2 h
DNAPK = DNAPK (Homo sapiens, UniProt P78527); test: KiNativ, OCI cells live cell; assay type: cell-based; conditions: 2 h, labeling site ATP
SNRK = SNRK (Homo sapiens, UniProt Q9NRH2); test: KiNativ, OCI cells live cell; assay type: cell-based; conditions: 2 h, labeling site Lys1, peptide […]
PEK = PEK (Homo sapiens, UniProt Q9NZJ5); test: KiNativ, OCI cells live cell; assay type: cell-based; conditions: 2 h, labeling site Lys2, peptide […]
MAP3K4 = MAP3K4 (Homo sapiens, UniProt Q9Y6R4); test: KiNativ, OCI cells live cell; assay type: cell-based; conditions: 2 h
Wee1 = Wee1 (Homo sapiens, UniProt P30291); test: KiNativ, OCI cells live cell; assay type: cell-based; conditions: 2 h, labeling site Lys2, peptide […]
CHEK2 = biological target: T2, CHEK2 (Homo sapiens, UniProt O96017); test: KdELECT binding assay
T2 construct: purchased Eurofins DiscoverX

ZAP70 = biological target: T3, ZAP70 (Homo sapiens, UniProt P43403); test: KiNativ, OCI cells live cell; assay type: cell-based; conditions: 2 h, labeling site Activation Loop
T3 sequence (P43403 1-619): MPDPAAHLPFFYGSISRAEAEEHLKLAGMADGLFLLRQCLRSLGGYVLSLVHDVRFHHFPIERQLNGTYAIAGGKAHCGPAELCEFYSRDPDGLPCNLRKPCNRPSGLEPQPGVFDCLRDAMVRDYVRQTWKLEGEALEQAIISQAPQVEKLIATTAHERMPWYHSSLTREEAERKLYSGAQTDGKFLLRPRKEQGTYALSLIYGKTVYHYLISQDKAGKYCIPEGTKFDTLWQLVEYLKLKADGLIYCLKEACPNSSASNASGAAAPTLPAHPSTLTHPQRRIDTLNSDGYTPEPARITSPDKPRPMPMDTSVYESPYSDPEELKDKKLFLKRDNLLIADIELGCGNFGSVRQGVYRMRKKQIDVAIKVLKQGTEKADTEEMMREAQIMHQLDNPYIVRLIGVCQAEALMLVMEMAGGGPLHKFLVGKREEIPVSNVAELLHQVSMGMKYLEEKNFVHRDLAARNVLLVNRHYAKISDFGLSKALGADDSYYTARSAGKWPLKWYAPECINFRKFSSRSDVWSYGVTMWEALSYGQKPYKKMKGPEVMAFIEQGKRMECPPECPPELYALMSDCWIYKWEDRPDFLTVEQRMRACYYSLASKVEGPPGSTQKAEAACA

NEK4 = NEK4 (Homo sapiens, UniProt P51957); test: KiNativ, OCI cells live cell; assay type: cell-based; conditions: 2 h, labeling site Lys2, peptide […]
FGR = FGR (Homo sapiens, UniProt P09769); test: KiNativ, OCI cells live cell; assay type: cell-based; conditions: 2 h, labeling site Activation Loop, peptide […]
MLKL = biological target: T4, MLKL (Homo sapiens, UniProt Q8NB16); test: KiNativ, OCI cells live cell; assay type: cell-based; conditions: 2 h, labeling site Lys1, peptide […]
T4 sequence (Q8NB16 1-471): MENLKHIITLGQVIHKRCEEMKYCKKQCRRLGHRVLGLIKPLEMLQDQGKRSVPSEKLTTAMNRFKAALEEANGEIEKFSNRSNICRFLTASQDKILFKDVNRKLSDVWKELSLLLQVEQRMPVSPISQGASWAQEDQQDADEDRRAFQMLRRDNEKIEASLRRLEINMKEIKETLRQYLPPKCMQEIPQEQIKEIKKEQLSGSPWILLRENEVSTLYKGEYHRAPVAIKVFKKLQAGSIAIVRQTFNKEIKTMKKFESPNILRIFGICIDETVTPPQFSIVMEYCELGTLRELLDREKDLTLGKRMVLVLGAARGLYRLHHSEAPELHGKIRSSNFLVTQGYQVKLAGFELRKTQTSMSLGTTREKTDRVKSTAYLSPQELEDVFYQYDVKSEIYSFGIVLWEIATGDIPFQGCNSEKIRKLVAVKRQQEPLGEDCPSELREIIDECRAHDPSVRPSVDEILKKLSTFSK

CDK7 = CDK7 (Homo sapiens, UniProt P50613); test: KiNativ, OCI cells live cell; assay type: cell-based; conditions: 2 h, labeling site Lys2, peptide […]
CDK9 = CDK9 (Homo sapiens, UniProt P50750); test: KiNativ, OCI cells live cell; assay type: cell-based; conditions: 2 h
SGK3 = SGK3 (Homo sapiens, UniProt Q96BR1); test: KiNativ, OCI cells live cell; assay type: cell-based; conditions: 2 h, labeling site Lys1, peptide […]
LOK = LOK (Homo sapiens, UniProt O94804); test: KiNativ, OCI cells live cell; assay type: cell-based; conditions: labeling site Lys2, peptide DLKAGNVLMTLEGDIR

Sequence of CDK9 (P50750 whole entry): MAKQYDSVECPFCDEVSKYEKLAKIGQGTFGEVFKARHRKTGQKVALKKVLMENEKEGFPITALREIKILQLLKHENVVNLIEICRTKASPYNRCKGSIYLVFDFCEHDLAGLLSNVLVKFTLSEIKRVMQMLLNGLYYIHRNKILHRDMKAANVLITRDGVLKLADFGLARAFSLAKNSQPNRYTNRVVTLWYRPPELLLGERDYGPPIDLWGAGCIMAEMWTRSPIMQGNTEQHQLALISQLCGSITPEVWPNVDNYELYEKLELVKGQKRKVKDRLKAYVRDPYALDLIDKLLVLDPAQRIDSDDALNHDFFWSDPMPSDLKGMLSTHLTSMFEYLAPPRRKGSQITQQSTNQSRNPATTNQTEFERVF
Sequence of CDK9 (O60563 whole entry partner): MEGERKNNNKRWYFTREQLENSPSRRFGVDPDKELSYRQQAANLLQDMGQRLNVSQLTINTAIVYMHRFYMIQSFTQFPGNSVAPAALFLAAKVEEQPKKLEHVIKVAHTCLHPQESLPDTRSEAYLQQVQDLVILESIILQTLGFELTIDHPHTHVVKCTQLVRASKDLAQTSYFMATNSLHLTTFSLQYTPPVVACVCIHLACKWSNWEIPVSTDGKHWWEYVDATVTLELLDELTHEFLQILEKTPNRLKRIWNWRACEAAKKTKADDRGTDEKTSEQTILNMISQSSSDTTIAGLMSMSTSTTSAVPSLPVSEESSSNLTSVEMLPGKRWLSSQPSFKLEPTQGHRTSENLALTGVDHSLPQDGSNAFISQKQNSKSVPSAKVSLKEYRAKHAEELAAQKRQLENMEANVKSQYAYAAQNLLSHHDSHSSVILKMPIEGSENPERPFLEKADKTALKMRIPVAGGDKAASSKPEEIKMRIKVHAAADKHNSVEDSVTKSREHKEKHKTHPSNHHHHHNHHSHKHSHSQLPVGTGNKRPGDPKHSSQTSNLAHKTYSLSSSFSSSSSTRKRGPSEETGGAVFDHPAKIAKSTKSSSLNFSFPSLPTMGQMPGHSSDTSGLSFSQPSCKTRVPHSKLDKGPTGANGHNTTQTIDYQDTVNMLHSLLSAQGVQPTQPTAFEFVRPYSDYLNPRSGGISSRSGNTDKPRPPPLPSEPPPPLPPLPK
Sequence of p70S6Kb (Q9UBS0 whole entry): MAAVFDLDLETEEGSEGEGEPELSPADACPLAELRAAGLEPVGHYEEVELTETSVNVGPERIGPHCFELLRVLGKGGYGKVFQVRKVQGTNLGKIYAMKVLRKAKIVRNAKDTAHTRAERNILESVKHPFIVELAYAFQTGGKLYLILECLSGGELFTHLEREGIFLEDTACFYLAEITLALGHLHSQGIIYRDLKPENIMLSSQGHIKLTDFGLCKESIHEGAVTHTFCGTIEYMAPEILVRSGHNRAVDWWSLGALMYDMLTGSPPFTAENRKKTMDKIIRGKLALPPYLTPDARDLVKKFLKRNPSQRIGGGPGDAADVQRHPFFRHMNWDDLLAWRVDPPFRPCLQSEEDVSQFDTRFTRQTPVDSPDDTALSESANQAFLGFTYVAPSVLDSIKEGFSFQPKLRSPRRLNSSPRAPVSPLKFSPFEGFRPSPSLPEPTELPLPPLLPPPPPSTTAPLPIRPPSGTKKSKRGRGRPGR
Sequence of MAP3K4 (Q9Y6R4 whole entry): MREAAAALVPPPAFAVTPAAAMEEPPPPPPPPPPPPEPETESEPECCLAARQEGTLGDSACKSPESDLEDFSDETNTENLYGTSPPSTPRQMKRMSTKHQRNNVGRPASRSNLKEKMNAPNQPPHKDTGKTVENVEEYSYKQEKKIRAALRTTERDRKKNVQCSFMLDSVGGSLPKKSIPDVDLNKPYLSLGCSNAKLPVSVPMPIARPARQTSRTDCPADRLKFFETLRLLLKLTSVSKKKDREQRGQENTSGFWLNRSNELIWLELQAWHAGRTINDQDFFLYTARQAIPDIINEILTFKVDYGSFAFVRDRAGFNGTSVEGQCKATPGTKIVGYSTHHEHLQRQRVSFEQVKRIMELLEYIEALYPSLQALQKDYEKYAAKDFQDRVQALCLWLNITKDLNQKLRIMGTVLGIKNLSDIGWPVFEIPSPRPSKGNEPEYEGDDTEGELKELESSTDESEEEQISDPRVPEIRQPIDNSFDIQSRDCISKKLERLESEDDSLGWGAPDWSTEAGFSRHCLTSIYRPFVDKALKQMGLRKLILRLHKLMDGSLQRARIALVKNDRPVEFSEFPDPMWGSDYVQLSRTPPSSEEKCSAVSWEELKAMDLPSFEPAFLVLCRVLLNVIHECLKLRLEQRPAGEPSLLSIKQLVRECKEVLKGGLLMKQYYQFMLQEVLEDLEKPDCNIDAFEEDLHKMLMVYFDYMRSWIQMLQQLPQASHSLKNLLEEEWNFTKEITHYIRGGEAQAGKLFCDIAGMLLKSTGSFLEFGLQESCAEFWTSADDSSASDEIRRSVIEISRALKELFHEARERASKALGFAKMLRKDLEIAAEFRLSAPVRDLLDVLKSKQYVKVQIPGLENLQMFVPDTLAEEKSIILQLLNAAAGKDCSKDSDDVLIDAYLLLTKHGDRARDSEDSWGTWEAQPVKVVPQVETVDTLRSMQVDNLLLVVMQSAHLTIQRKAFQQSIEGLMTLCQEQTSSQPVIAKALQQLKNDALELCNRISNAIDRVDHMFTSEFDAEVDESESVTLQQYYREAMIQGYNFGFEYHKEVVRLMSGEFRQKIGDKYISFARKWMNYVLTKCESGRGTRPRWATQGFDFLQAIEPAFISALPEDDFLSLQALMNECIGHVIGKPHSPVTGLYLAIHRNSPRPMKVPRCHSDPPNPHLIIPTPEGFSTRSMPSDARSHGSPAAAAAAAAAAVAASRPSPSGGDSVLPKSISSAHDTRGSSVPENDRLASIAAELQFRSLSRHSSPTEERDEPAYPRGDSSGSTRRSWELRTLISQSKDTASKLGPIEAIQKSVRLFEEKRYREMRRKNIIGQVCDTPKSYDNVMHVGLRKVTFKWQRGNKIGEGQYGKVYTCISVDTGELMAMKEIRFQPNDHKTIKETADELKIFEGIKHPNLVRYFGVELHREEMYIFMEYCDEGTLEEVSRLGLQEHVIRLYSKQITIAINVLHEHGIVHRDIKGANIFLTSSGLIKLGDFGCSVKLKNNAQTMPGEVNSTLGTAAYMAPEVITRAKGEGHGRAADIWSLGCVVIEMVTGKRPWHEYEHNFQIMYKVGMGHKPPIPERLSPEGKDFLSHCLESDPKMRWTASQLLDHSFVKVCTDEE
Sequence of SGK3 (Q96BR1 whole entry): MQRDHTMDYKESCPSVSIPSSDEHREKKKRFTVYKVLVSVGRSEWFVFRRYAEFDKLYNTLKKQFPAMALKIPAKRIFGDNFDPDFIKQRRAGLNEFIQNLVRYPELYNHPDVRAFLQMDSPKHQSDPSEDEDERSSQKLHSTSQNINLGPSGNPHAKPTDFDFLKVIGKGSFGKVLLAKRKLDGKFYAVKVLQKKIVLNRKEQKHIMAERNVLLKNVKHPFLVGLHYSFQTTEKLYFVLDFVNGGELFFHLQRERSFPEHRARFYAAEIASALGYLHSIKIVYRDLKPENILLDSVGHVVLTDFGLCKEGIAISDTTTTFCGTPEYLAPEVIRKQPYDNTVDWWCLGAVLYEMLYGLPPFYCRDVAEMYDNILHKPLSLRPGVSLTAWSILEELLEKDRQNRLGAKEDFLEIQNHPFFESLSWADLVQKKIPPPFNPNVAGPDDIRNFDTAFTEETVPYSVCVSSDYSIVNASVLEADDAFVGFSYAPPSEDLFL
Sequence of Wee1 (P30291 whole entry): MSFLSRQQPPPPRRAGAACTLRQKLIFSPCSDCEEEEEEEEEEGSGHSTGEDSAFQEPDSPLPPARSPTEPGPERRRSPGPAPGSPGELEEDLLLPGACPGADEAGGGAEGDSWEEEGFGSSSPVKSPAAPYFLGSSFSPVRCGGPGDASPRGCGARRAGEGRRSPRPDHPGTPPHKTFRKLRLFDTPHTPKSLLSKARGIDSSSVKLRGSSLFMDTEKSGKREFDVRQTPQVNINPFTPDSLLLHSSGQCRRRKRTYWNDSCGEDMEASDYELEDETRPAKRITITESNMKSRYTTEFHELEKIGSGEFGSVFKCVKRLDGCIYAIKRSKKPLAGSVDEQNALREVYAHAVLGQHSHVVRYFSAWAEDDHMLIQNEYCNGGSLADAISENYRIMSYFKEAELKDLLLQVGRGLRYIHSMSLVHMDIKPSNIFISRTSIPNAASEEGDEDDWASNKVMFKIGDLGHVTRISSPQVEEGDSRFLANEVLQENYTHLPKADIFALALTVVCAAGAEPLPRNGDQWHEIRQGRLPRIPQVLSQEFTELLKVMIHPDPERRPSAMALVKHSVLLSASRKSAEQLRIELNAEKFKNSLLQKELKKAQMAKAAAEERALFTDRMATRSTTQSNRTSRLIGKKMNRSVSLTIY
Sequence of FGR (P09769 whole entry): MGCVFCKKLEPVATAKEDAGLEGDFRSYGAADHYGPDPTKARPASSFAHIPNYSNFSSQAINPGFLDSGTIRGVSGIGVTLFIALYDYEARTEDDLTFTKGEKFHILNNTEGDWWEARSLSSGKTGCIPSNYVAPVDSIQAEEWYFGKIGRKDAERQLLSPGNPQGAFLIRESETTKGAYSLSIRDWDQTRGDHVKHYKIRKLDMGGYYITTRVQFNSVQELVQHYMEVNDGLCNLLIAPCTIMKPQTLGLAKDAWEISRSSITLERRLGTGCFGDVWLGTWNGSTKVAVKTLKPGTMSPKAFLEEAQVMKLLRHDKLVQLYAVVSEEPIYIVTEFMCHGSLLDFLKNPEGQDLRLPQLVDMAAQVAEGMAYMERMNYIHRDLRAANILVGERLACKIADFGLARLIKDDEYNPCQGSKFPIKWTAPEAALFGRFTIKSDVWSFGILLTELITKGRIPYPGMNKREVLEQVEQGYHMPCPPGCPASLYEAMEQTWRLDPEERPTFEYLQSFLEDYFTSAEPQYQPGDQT

With `CN1CCN(Cc2ccc(Nc3ncc(Cl)c(Nc4ccccc4S(=O)(=O)N(C)C)n3)cc2)CC1` [TP-0903] the inhibition at 0.1 µM (AGK) was -26.9%, the Inhibition [1] was 54.4% and the Inhibition (ROCK1, ROCK2; labeling site Lys1, peptide VYAMKLLSK) was -8.5%. The Inhibition (ROCK1, ROCK2; labeling site Lys2, peptide DVKPDNMLLDK) was -30.5%, the inhibition at 0.1 µM (AKT1) was -17.1% and the Kd (FGFR1) was 21 nM. The inhibition at 0.1 µM (LCK) was -4.3%, the Inhibition (AKT1, AKT3; labeling site Lys1, peptide YYAMKILK) was -15.9% and the Inhibition (AKT1, AKT3; labeling site Lys2, peptide DLKLENLMLDKDGHIK) was -30.0%. The Inhibition [2] was -42.0%, the inhibition at 0.1 µM (p70S6Kb; labeling site Lys1, peptide IYAMKVLR) was -2.8% and the inhibition at 0.1 µM (p70S6Kb; labeling site Lys2, peptide DLKPENIMLSSQGHIK) was -18.3%. For the same molecule, the inhibition at 0.1 µM (DNAPK; peptide EHPFLVKGGEDLR) was 2.8%, the inhibition at 0.1 µM (DNAPK; peptide KGGSWIQEINVAEK) was 8.4% and the inhibition at 0.1 µM (SNRK) was 1%. For the same molecule, the inhibition at 0.1 µM (PEK) was -9.6%, the inhibition at 0.1 µM (MAP3K4; labeling site Lys1, peptide VYTCISVDTGELMAMKEIR) was 2.7% and the inhibition at 0.1 µM (MAP3K4; labeling site Lys2, peptide DIKGANIFLTSSGLIK) was 24.7%. For the same molecule, the inhibition at 0.1 µM (Wee1) was 67.8%, the Kd (CHEK2) was less than 5 nM and the inhibition at 0.1 µM (ZAP70; peptide ISDFGLSKALGADDSYYTAR) was -29.4%. For the same molecule, the inhibition at 0.1 µM (ZAP70; peptide […], read-out: Inhibition) was -4%, the inhibition at 0.1 µM (NEK4) was -12.3% and the inhibition at 0.1 µM (FGR) was 9.5%. The inhibition at 0.1 µM (MLKL) was -29.6%, the inhibition at 0.1 µM (CDK7) was 95.7% and the inhibition at 0.1 µM (CDK9; labeling site ATP Loop, peptide IGQGTFGEVFKAR) was -30.7%. For the same molecule, the inhibition at 0.1 µM (CDK9; labeling site Lys2, peptide DMKAANVLITR) was 32.9%, the inhibition at 0.1 µM (SGK3) was -12.3% and the Inhibition (LOK) was 86.9%.

— PMC7714403 (JCI Insight, 2020)
